Results reported in patent publication US20110104055A1, “SUBSTITUTED N-ARYL BENZAMIDES AND RELATED COMPOUNDS FOR TREATMENT OF AMYLOID DISEASES AND SYNUCLEINOPATHIES” (priority 2002, published 2011).

How the values were obtained:
Assay type in all cases: biochemical
[1] = molecular target: T1, Aβ 1-42 fibrils (Homo sapiens, UniProt P05067); assay: Thioflavin T fluorometry, disruption of pre-formed Aβ 1-42 fibrils (Example 11); conditions: 30 μg pre-fibrillized Aβ 1-42, 37° C., 3 days
T1 construct: purchased Bachem Inc
T1 sequence (P05067 672-713): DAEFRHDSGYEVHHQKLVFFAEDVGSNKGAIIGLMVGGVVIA
Text: In one study, Thioflavin T fluorometry was used to determine the effects of the compounds, and of EDTA (as a negative control). In this assay Thioflavin T binds specifically to fibrillar amyloid, and this binding produces a fluorescence enhancement at 485 nm that is directly proportional to the amount of amyloid fibrils formed. The higher the fluorescence, the greater the amount of amyloid fibrils formed (Naki et al., Lab. Invest. 65:104-110, 1991; Levine III, Protein Sci. 2:404-410, 1993; Amyloid: Int. J. Exp. Clin. Invest. 2:1-6, 1995).
(§1) Following 3-days of co-incubation, 50 μl of each incubation mixture was transferred into a 96-well microtiter plate containing 150 μl of distilled water and 50 μl of a Thioflavin T solution (i.e. 500 mM Thioflavin T in 250 mM phosphate buffer, pH 6.8). The fluorescence was read at 485 nm (444 nm excitation wavelength) using an ELISA plate fluorometer after subtraction with buffer alone or compound alone, as blank.

[2] = molecular target: T1, Aβ 1-42 fibrils; assay: Congo red binding assay, Aβ 1-42 fibrils (Example 11); conditions: 3-day incubation
Protocol: (§2) In the Congo red binding assay, the ability of a test compound to alter amyloid (in this case, Aβ) binding to Congo red is quantified. In this assay, Aβ 1-42 and test compounds were incubated for 3 days and then vacuum filtered through a 0.2 μm filter. The amount of Aβ 1-42 retained in the filter was then quantitated following staining of the filter with Congo red. After appropriate washing of the filter, any lowering of the Congo red color on the filter in the presence of the test compound (compared to the Congo red staining of the amyloid protein in the absence of the test compound) was indicative of the test compound's ability to diminish/alter the amount of aggregated and congophilic Aβ.
In one study, the ability of Aβ fibrils to bind Congo red in the absence or presence of increasing amounts of the compounds or EDTA (at Aβ:test compound weight ratios of 1:1, 1:0.1, 1:0.01 or 1:0.001) was determined.

[3] = molecular target: T2, α-synuclein fibrils (Homo sapiens, UniProt P37840); assay: Thioflavin T fluorometry, disruption of pre-formed α-synuclein fibrils (Example 12); conditions: 3 days; for % Inhibition α-synuclein (result ± S.D.), Thioflavin T fluorometry: 30 μg pre-fibrillized α-synuclein, 37° C.
T2 construct: purchased rPeptide
Protocol: In this assay, Thioflavin T binds specifically to α-synuclein fibrils, and this binding produces a fluorescence enhancement at 485 nm that is directly proportional to the amount of α-synuclein fibrils present. The higher the fluorescence, the greater the amount of α-synuclein fibrils present (Naki et al, Lab. Invest. 65:104-110, 1991; Levine III, Protein Sci. 2:404-410, 1993; Amyloid: Int. J. Exp. Clin. Invest. 2:1-6, 1995).
as §1, with “In this study, 30 μg of pre-fibrillized α-synuclein (rPeptide) was incubated at 37° C. for 3 days either alone or in the presence of compounds DC-0051-F1, F2, F3, F4, F5, F6 or EDTA (at α-synuclein:test compound weight ratios of 1:1, 1:0.1, 1:0.01 or 1:0.001). Following” for “Following”

[4] = molecular target: T2, α-synuclein fibrils; assay: Congo red binding assay, α-synuclein fibrils (Example 12); conditions: 3-day incubation
Protocol: as §2, with “of a given test compound” for “of a test compound”, “this case, α-synuclein) binding to” for “this case, Aβ) binding to”, “this assay, α-synuclein and test” for “this assay, Aβ 1-42 and test”, “amount of α-synuclein retained in” for “amount of Aβ 1-42 retained in”, “and congophilic α-synuclein.” for “and congophilic Aβ.”
In one study, the ability of α-synuclein fibrils to bind Congo red in the absence or presence of increasing amounts of compounds DC-0051-F1, F2, F3, F4, F5, F6 and EDTA (at α-synuclein:test compound weight ratios of 1:1, 1:0.1, 1:0.01 or 1:0.001) was determined.

[5] = Aβ:test compound wt/wt ratio 1:0.001
[6] = Aβ:test compound wt/wt ratio 1:0.01
[7] = Aβ:test compound wt/wt ratio 1:0.1
[8] = Aβ:test compound wt/wt ratio 1:1
[9] = α-synuclein:test compound wt/wt ratio 1:0.001
[10] = α-synuclein:test compound wt/wt ratio 1:0.01
[11] = α-synuclein:test compound wt/wt ratio 1:0.1
[12] = α-synuclein:test compound wt/wt ratio 1:1

% Inhibition Aβ (result ± S.D.), Thioflavin T fluorometry [1, 5]: 9.6 ± 0.96% | % Inhibition Aβ (result ± S.D.), Thioflavin T fluorometry [1, 6]: 36.8 ± 3.43% | % Inhibition Aβ (result ± S.D.), Thioflavin T fluorometry [1, 7]: 88.0 ± 1.09% | % Inhibition Aβ (result ± S.D.), Thioflavin T fluorometry [1, 8]: 99.4 ± 0.86% | % Inhibition Aβ (result ± S.D.), Congo red binding [2, 5]: 3.7 ± 3.24% | % Inhibition Aβ (result ± S.D.), Congo red binding [2, 6]: 6.8 ± 1.51% | % Inhibition Aβ (result ± S.D.), Congo red binding [2, 7]: 18.3 ± 5.32% | % Inhibition Aβ (result ± S.D.), Congo red binding [2, 8]: 68.0 ± 2.11% | disruption/disassembly of pre-formed α-synuclein fibrils, in words ([3]; Thioflavin T fluorometry, all concentrations tested): dose-dependent disruption/disassembly | % Inhibition α-synuclein (result ± S.D.), Thioflavin T fluorometry [3, 9]: 4.2 ± 5.02% | % Inhibition α-synuclein (result ± S.D.), Thioflavin T fluorometry [3, 10]: 56.2 ± 1.49% | % Inhibition α-synuclein (result ± S.D.), Thioflavin T fluorometry [3, 11]: 94.7 ± 0.68% | % Inhibition α-synuclein (result ± S.D.), Thioflavin T fluorometry [3, 12]: 100.0 ± 1.98% | % Inhibition α-synuclein (result ± S.D.), Congo red binding [4, 9]: 0.0 ± 4.20% | % Inhibition α-synuclein (result ± S.D.), Congo red binding [4, 10]: 1.4 ± 5.69% | % Inhibition α-synuclein (result ± S.D.), Congo red binding [4, 11]: 29.9 ± 2.41% | % Inhibition α-synuclein (result ± S.D.), Congo red binding [4, 12]: 59.8 ± 3.62%
SMILES: O=C(Nc1ccc(O)c(O)c1F)c1ccc(O)c(O)c1 [DC-0051-F6, N-(2-fluoro-3,4-dihydroxyphenyl)-3,4-dihydroxybenzamide]
